The text below walks through data of BindingDB's records for PubMed 11303063 (Creighton University, 2001).

Broadly, the Ki is a measure of affinity in units of concentration, obtained from inhibition or displacement.

The assay deals with Muscarinic acetylcholine receptor M3 (Rattus norvegicus, UniProt P08483).

The structures appear in SMILES notation. Several values for one entry are separate records, joined by “and”; a condition that tells them apart may be missing. Equal entries are not always repeated.

Sequence of Muscarinic acetylcholine receptor M3 (P08483 whole entry): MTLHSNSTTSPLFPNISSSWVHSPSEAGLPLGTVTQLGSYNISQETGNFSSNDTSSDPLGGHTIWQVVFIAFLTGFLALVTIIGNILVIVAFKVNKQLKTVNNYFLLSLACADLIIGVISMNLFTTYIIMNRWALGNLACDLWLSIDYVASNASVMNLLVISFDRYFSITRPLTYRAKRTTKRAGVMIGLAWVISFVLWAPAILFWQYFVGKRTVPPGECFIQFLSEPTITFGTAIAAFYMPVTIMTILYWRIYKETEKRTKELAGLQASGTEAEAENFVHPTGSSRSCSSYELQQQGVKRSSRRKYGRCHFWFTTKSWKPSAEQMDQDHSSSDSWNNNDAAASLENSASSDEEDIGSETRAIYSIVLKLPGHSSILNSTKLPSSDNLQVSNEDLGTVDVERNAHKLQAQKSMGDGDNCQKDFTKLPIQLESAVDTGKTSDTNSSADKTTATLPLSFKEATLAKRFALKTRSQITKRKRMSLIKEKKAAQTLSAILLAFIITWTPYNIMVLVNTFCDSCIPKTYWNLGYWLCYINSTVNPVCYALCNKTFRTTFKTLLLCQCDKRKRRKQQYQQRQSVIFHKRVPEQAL

`COc1ccccc1CNCCCCCCNCCCCCCCCNCCCCCCNCc1ccccc1OC` [METHOCTRAMINE]: the Ki was 1.4 µM and 1.7 µM.
`CN(CCCCCCCCN(C)CCCCCCN(CC(=O)N1c2ccccc2C(=O)Nc2cccnc21)CC(=O)N1c2ccccc2C(=O)Nc2cccnc21)CCCCCCNCC(=O)N1c2ccccc2C(=O)Nc2cccnc21` [NSC_132947]: the Ki is 0.22 µM and 0.18 µM.
